# Reference: EP3560516A1, “COMBINATION THERAPY INCLUDING BETA-SITOSTEROL IN COMBINATION WITH AT LEAST ONE OF A BRAF INHIBITOR, A MEK INHIBITOR OR AN ERK INHIBITOR AND METHODS AND USE THEREOF” (Bergen Teknologioverføring AS, priority 2018, dated 2019)
# How the values were obtained:
# H9 cells = assay: MTS viability assay; assay type: cell-based; settings: Homo sapiens, H9, 72 h, read-out: cell viability
# Source text: (§1) • Figure 1: In vivo drug screening. (Figure left) Number of brain metastases at T1-weighted MRI with contrast (Student's t-test). (Figure right) Kaplan-Meier survival plot (Mantel-Cox log-rank test). There was no significant difference between vehicle- and memantine-treated mice. * P < 0.05; ** P < 0.01. All values are given as the mean ± s.e.m. • Figure 2: In vivo validation of β-sitosterol treatment-1. (Figure left) Number of brain metastases assessed by T1-weighted MRI with contrast (Student's t-test). The mean number of brain metastases in the vehicle group decreased slightly from seven to eight weeks as four mice with the greatest number of brain metastases were sacrificed between these observation points. (Figure right) Kaplan-Meier survival plot (Mantel-Cox log-rank test). The experiment was terminated at 100 days, and three mice in the β-sitosterol group were still alive and healthy. * P < 0.05; ** P < 0.01; **** P < 0.0001. All values are given as the mean ± s.e.m. • Figure 3: In vivo validation of β-sitosterol on H1_DL2 brain metastasis-2. (Figure left) Body weight from week zero to eight. […] After 24 hours, the drugs were added to the wells, incubated for 72 hours, and then viability was assessed using an MTS assay. […] After 24 hours, the drugs were added to the wells, incubated for 72 hours, and then viability was assessed using an MTS assay. […]
# H10 cells = assay: MTS viability assay; assay type: cell-based, human
# Source text: (§2) • Figure 1: In vivo drug screening. (Figure left) Number of brain metastases at T1-weighted MRI with contrast (Student's t-test). (Figure right) Kaplan-Meier survival plot (Mantel-Cox log-rank test). There was no significant difference between vehicle- and memantine-treated mice. * P < 0.05; ** P < 0.01. All values are given as the mean ± s.e.m. • Figure 2: In vivo validation of β-sitosterol treatment-1. (Figure left) Number of brain metastases assessed by T1-weighted MRI with contrast (Student's t-test). The mean number of brain metastases in the vehicle group decreased slightly from seven to eight weeks as four mice with the greatest number of brain metastases were sacrificed between these observation points. (Figure right) Kaplan-Meier survival plot (Mantel-Cox log-rank test). The experiment was terminated at 100 days, and three mice in the β-sitosterol group were still alive and healthy. * P < 0.05; ** P < 0.01; **** P < 0.0001. All values are given as the mean ± s.e.m. • Figure 3: In vivo validation of β-sitosterol on H1_DL2 brain metastasis-2. (Figure left) Body weight from week zero to eight. […] (Figure right) Volume of brain metastases at MRI (T1-weighted with contrast). Total volume of brain metastases per animal was compared at group level. Student's t-test: n.s. P ≥ 0.05, * P < 0.05, ** P < 0.01, *** P < 0.001, **** P < 0.0001. All values are given as the mean ± s.e.m. • Figure 4: In vivo validation of β-sitosterol on PC14-PE6-Br2 brain metastases. Mice were injected intracardially with 5 x 10^5 PC14-PE6-Br2 cells. Test groups received daily i.p. injections of 0.1 mL vehicle (olive oil; n =4) or β-sitosterol 5 mg/kg (n = 6). (Figure left) Total volume of brain metastases at MRI at three weeks (T1-weighted with contrast). Total volume of brain metastases per animal was compared at group level. (Figure right) Kaplan-Meier survival plot (Mantel-Cox log-rank test: *** P < 0.001). All values are given as the mean ± s.e.m. • Figure 5: In vitro and in vivo effects on additional melanoma metastatic cell lines. (Figure left) Half maximal inhibitory concentration (IC50) values for β-sitosterol, PLX4720 and the combination thereof in Melmet 1, Melmet 5 and A375 cell lines (n = 3). (Figure right) Subcutaneous tumor volume ([width2 x length]/2) in mice injected with […] Melmet 5 cells. Mice were from 2 weeks onwards given daily i.p. injections of 0.1 mL vehicle (olive oil), 20 mg/kg β-sitosterol in olive oil, 25 mg/kg PLX4720 in 0.05% DMSO, or a combination of the two latter (n = 8 in each group). […] After 24 hours, the drugs were added to the wells, incubated for 72 hours, and then viability was assessed using an MTS assay. […] After 24 hours, the drugs were added to the wells, incubated for 72 hours, and then viability was assessed using an MTS assay. […]
# H1 cells = assay: MTS viability assay; assay type: cell-based, human
# Source text: as §2
# brain metastases = assay: in vivo drug screening in human-to-mouse brain metastasis model; settings: compared with vehicle-treated mice; for survival: Kaplan-Meier
# Source text: (§3) • Figure 1: In vivo drug screening. (Figure left) Number of brain metastases at T1-weighted MRI with contrast (Student's t-test). (Figure right) Kaplan-Meier survival plot (Mantel-Cox log-rank test). There was no significant difference between vehicle- and memantine-treated mice. * P < 0.05; ** P < 0.01. All values are given as the mean ± s.e.m. • Figure 2: In vivo validation of β-sitosterol treatment-1. (Figure left) Number of brain metastases assessed by T1-weighted MRI with contrast (Student's t-test). The mean number of brain metastases in the vehicle group decreased slightly from seven to eight weeks as four mice with the greatest number of brain metastases were sacrificed between these observation points. (Figure right) Kaplan-Meier survival plot (Mantel-Cox log-rank test). The experiment was terminated at 100 days, and three mice in the β-sitosterol group were still alive and healthy. * P < 0.05; ** P < 0.01; **** P < 0.0001. All values are given as the mean ± s.e.m. • Figure 3: In vivo validation of β-sitosterol on H1_DL2 brain metastasis-2. (Figure left) Body weight from week zero to eight. […] (Figure right) Volume of brain metastases at MRI (T1-weighted with contrast). Total volume of brain metastases per animal was compared at group level. Student's t-test: n.s. P ≥ 0.05, * P < 0.05, ** P < 0.01, *** P < 0.001, **** P < 0.0001. All values are given as the mean ± s.e.m. • Figure 4: In vivo validation of β-sitosterol on PC14-PE6-Br2 brain metastases. Mice were injected intracardially with 5 x 10^5 PC14-PE6-Br2 cells. Test groups received daily i.p. injections of 0.1 mL vehicle (olive oil; n =4) or β-sitosterol 5 mg/kg (n = 6). (Figure left) Total volume of brain metastases at MRI at three weeks (T1-weighted with contrast). Total volume of brain metastases per animal was compared at group level. (Figure right) Kaplan-Meier survival plot (Mantel-Cox log-rank test: *** P < 0.001). All values are given as the mean ± s.e.m. • Figure 5: In vitro and in vivo effects on additional melanoma metastatic cell lines. (Figure left) Half maximal inhibitory concentration (IC50) values for β-sitosterol, PLX4720 and the combination thereof in Melmet 1, Melmet 5 and A375 cell lines (n = 3). (Figure right) Subcutaneous tumor volume ([width2 x length]/2) in mice injected with […] Melmet 5 cells. Mice were from 2 weeks onwards given daily i.p. injections of 0.1 mL vehicle (olive oil), 20 mg/kg β-sitosterol in olive oil, 25 mg/kg PLX4720 in 0.05% DMSO, or a combination of the two latter (n = 8 in each group). Representative images of tumors at 44 days are shown in the right panel. Student's t-test: * P < 0.05, ** P < 0.01. Values are given as the mean ± s.e.m. • Figure 6: In vitro effects of other BRAF and MEK inhibitors on human melanoma brain metastatic cell lines. 5000 cells (human BRAF mutated melanoma brain metastatic cell lines H1, H9 or H10) were plated in each well of a 96 well dish. After 24 hours, the drugs were added to the wells, incubated for 72 hours, and then viability was assessed using an MTS assay. […] 5000 cells were plated in each well of a 96 well dish. After 24 hours, the drugs were added to the wells, incubated for 72 hours, and then viability was assessed using an MTS assay.
# We next investigated the efficacy of thiostrepton, memantine, and β-sitosterol using a highly standardized human-to-mouse brain metastasis model (Sundstrøm T et al, Cancer Res 2013;73:2445-2456). Drug treatment was commenced one week after tumor cell injections.
# H1_DL2 brain metastasis = assay: in vivo validation of β-sitosterol treatment, treatment commenced before cell injection; set-up: species or system mice
# Source text: as §3
# To validate our β-sitosterol treatment findings, we carried out a new and more extensive in vivo study in which treatment commenced before cell injection.
# four melanoma cell lines = assay: monolayer viability and tumorsphere assays; assay type: cell-based; settings: among top 10 candidate compounds from cMap
# Source text: Based on RNA sequencing of tumors in brains, adrenals, bone and ovaries from mice, we defined a 108-gene brain metastasis signature using a comparative work-flow of independent analyses of gene expression profiles from brain versus other organ metastases in a human BRAF-mutant melanoma xenograft model. […] For further studies, we concentrated on the top 10 candidate anti-brain metastatic compounds. To test the efficacy of the candidate compounds, we performed monolayer viability and tumorsphere assays in four melanoma cell lines (Daphu I et al, Int J Mol Sci 2014;15:8773.8794, Netland IA et al, J Neurooncol 2016;129:57-66). IC50 values were generally lower in tumorspheres than in monolayers, and there was substantial variation in cell line sensitivity.
# Melmet 5 cells = assay: subcutaneous Melmet 5 melanoma model; assay type: in vivo, mice; settings: daily i.p. from 2 weeks: 20 mg/kg β-sitosterol, 25 mg/kg PLX4720, or both
# Source text: as §1
# [1] = system: PC14-PE6-Br2 brain metastases; assay: in vivo validation on lung adenocarcinoma brain metastases; set-up: species or system mice; settings: 5 mg/kg daily i.p.
# Source text: • Figure 1: In vivo drug screening. (Figure left) Number of brain metastases at T1-weighted MRI with contrast (Student's t-test). (Figure right) Kaplan-Meier survival plot (Mantel-Cox log-rank test). There was no significant difference between vehicle- and memantine-treated mice. * P < 0.05; ** P < 0.01. All values are given as the mean ± s.e.m. • Figure 2: In vivo validation of β-sitosterol treatment-1. (Figure left) Number of brain metastases assessed by T1-weighted MRI with contrast (Student's t-test). The mean number of brain metastases in the vehicle group decreased slightly from seven to eight weeks as four mice with the greatest number of brain metastases were sacrificed between these observation points. (Figure right) Kaplan-Meier survival plot (Mantel-Cox log-rank test). The experiment was terminated at 100 days, and three mice in the β-sitosterol group were still alive and healthy. * P < 0.05; ** P < 0.01; **** P < 0.0001. All values are given as the mean ± s.e.m. • Figure 3: In vivo validation of β-sitosterol on H1_DL2 brain metastasis-2. (Figure left) Body weight from week zero to eight. […] After 24 hours, the drugs were added to the wells, incubated for 72 hours, and then viability was assessed using an MTS assay. […] After 24 hours, the drugs were added to the wells, incubated for 72 hours, and then viability was assessed using an MTS assay.
# MDA-MB-231 = assay: MTS viability assay; assay type: cell-based, human
# Source text: as §2
# [2] = MRI, treatment commenced one week after tumor cell injections
# [3] = human, mda-mb-231 cells, 72 h, 35 µM
smiles,measurement,setting,value
CC[C@H](CC[C@@H](C)[C@H]1CC[C@H]2[C@@H]3CC=C4C[C@@H](O)CC[C@]4(C)[C@H]3CC[C@]12C)C(C)C [β-sitosterol],viability at 50 µM,H9 cells,85%
same,cell viability,"H10 cells; 50uM beta-sitosterol, 5uM vemurafenib, 72 hours, compared to the untreated cells",around 80%
same,cell viability,"H1 cells; 50uM beta-sitosterol, 5nM trametinib, 72 hours, compared with untreated cells",around 85%
same,survival,brain metastases,survived significantly longer
same,number of brain metastases,brain metastases; [2],significant reduction
same,volume of brain metastases,brain metastases; [2],significant reduction
same,survival,"H1_DL2 brain metastasis; Kaplan-Meier, compared with vehicle treatment, terminated at 100 days",significant survival benefit
same,volumes of brain metastases,"H1_DL2 brain metastasis; MRI T1-weighted with contrast, compared with vehicle group",significantly lower volumes
same,number of brain metastases,"H1_DL2 brain metastasis; T1-weighted MRI with contrast, compared with vehicle group",significantly fewer brain metastases
same,mice healthy and tumor-free,"H1_DL2 brain metastasis; at 100 days, evaluated by brain MRI and histology",three out of nine
same,average body weight,"H1_DL2 brain metastasis; at 100 days, three remaining mice, mean ± s.e.m.",26.7 ± 0.6 grams
same,body weight,"H1_DL2 brain metastasis; week zero to eight, vehicle-treated mice lost weight from four weeks onwards",maintained a stable body weight
same,reducing viability and tumorsphere growth,four melanoma cell lines,most potent
same,subcutaneous tumor growth,Melmet 5 cells,effective as monotherapies
same,survival,[1]; Kaplan-Meier,prolonged survival
same,brain metastatic burden,"[1]; MRI at three weeks, compared with vehicle",significant reduction
same,cell viability,"MDA-MB-231; 35uM beta-sitosterol, 0.5uM trametinib, 72 hours (Figure 7 left)",around 48%
same,cell viability,"MDA-MB-231; 35uM beta-sitosterol, 5uM vemurafenib, 72 hours (Figure 7 right)",around 44%
"CC(=O)Nc1cccc(-n2c(=O)n(C3CC3)c(=O)c3c(Nc4ccc(I)cc4F)n(C)c(=O)c(C)c32)c1 [trametinib, reference compound]",cell viability,"H1 cells; h1 cells, 72 h, 50 µM",~60%
same,cell viability,MDA-MB-231; [3],around 44%
"CC12CC3CC(C)(C1)CC(N)(C3)C2 [memantine, reference compound]",survival,brain metastases,did not affect survival
same,reducing viability and tumorsphere growth,four melanoma cell lines,most potent
"CCCS(=O)(=O)Nc1ccc(F)c(C(=O)c2c[nH]c3ncc(Cl)cc23)c1F [PLX4720, reference compound]",subcutaneous tumor growth,Melmet 5 cells,effective as monotherapies
"CCCS(=O)(=O)Nc1ccc(F)c(C(=O)c2c[nH]c3ncc(-c4ccc(Cl)cc4)cc23)c1F [vemurafenib, reference compound]",cell viability,"H10 cells; h10 cells, 72 h, 50 µM",around 25%
same,cell viability,MDA-MB-231; [3],~73%
"C=C(NC(=O)C(=C)NC(=O)c1csc(C2=N[C@@H]3c4csc(n4)[C@H]4NC(=O)c5csc(n5)[C@H]([C@](C)(O)[C@@H](C)O)NC(=O)[C@H]5CSC(=N5)/C(=C/C)NC(=O)[C@H]([C@@H](C)O)NC(=O)c5csc(n5)[C@]3(CC2)NC(=O)[C@H](C)NC(=O)C(=C)NC(=O)[C@H](C)NC(=O)[C@H]([C@@H](C)CC)N[C@@H]2C=Cc3c([C@H](C)O)cc(nc3[C@H]2O)C(=O)O[C@@H]4C)n1)C(N)=O [thiostrepton, reference compound]",survival,brain metastases,significantly shorter lifespan
same,reducing viability and tumorsphere growth,four melanoma cell lines,most potent
